Measurements reported in patent US8629174B2, “Unifying mechanism and methods to prevent cancer and neurodegenerative diseases” (Prevention L.L.C., priority 2002, dated 2014).

Experiments:
[1] = system: DNA; test: Reaction of E2-3,4-Q or enzymatically-activated 4-OHE2 with DNA in vitro; format: biochemical; conditions: enzymatically activated (peroxidases, tyrosinase, microsomes), all cases
Procedure: To determine whether DNA adducts are formed in biological systems, E2-3,4-Q or enzymatically-activated 4-hydroxyestradiol (4-OHE2) was reacted with DNA for 2 h at 37° C. The stable adducts were quantified by the ^32P-postlabeling method, and the depurinating adducts were analyzed by high pressure liquid chromatography (HPLC) interfaced with an electrochemical detector. When E2-3,4-Q reacted with DNA, almost the same amount of the depurinating adducts 4-OHE2-1-N3Ade and 4-OHE2-1-N7Gua were obtained, and the amount of stable adducts was 0.02% of the depurinating ones. Activation of 4-OHE2 by horseradish peroxidase gave similar results, whereas the mammalian lactoperoxidase produced a similar amount of N3Ade adduct, but about 50% more N7Gua adduct. The same two depurinating adducts were obtained in equal but smaller amounts when 4-OHE2 was activated with tyrosinase or phenobarbital-induced rat liver microsomes. In all cases, the level of stable adducts was 0.02% or less compared to the depurinating adducts (Li K. M., et al., Proc. Am. Assoc. Cancer Res., 39, 636 (1998); Cavalieri, et al., unpublished results).

[2] = system: H-ras gene; test: H-ras mutation spectra in treated mouse skin (PCR, cloning, sequencing, with or without TDG treatment); format: in vivo; conditions: for A/T to G/C mutations, percent of total mutations / A/T to G/C mutations/total mutations: skin DNA
Procedure: Evidence in support of this was obtained from a comparative study of mutations in the mouse skin H-ras gene induced by 200 nmol of DB[a,l]P or 200 nmol of anti-DB[a,l]P-11,12-dihydrodiol-13,14-epoxide (anti-DB[a,l]PDE). Unlike DB[a,l]P, anti-DB[a,l]PDE forms 97% stable adducts and 3% depurinating adducts in DNA. In these experiments, the types of mutations that are induced in the early preneoplastic times was identified (12 h to 9 days after treatment) and then analyzed whether these mutations were induced as a result of error-prone repair (FIG. 4). The mutations were identified by PCR amplifying a segment of the H-ras gene from DNA extracted from mouse skin treated with one of the carcinogens, cloning the PCR products in a plasmid, isolating individual subclones and sequencing the H-ras inserts to identify mutations. (Chakravarti D., et al., Mutation Res., 456, 17-32 (2000); Cavalieri E. L. and Rogan E. G., Mechanisms of tumor initiation by polycyclic aromatic hydrocarbons in mammals. In: The Handbook of Environmental Chemistry: PAHs and Related Compounds, 3J, 81-117, Neilson A. H. (ed.), Springer, Heidelberg, Germany (1998).)
In this technique, G.T heteroduplexes in skin DNA are converted to G.apyrimidinic sites by treatment with T.G-DNA glycosylase (TDG) (FIG. 5). (Chakravarti D., et al., Mutation Res., 456, 17-32 (2000).)
Since abasic site-containing DNA molecules are refractory to PCR amplification, the conversion of G.T heteroduplexes into G. apyrimidinic sites makes H-ras molecules containing these heteroduplexes unamplifiable. […] As a result, PCR amplification of the H-ras gene from TDG-treated skin DNA, followed by cloning the PCR product and isolating and determining the sequence of individual subclones, causes a specific, drastic reduction of A to G mutations in the mutation spectra. In addition, the preferential PCR amplification artificially enriches low-abundance mutations that are observed only in TDG-treated spectra.
Following the entry of skin cells into S-phase, however, the G.T heteroduplexes are converted into G.C and A.T base pairs by one round of replication. […] Thus, the specific reduction of A to G mutations in the mutation spectra by the TDG-PCR procedure characterizes these mutations as G.T heteroduplexes. […] Therefore, A to G mutations remained as G.T heteroduplexes until one day after DB[a,l]P treatment of the skin; beyond which they were present as G.C and A.T mutations, presumably by replication. Flow cytometric analysis of epidermal keratinocytes isolated from DB[a,l]P-treated mouse skin confirms that cells begin to enter the S-phase one day after the treatment. (Chakravarti D., et al., Mutation Res., 456, 17-32 (2000); Chakravarti et al., unpublished results).
Treatment of mouse skin with 200 nmol of E2-3,4-Q induced primarily A/T to G/C mutations in the H-ras gene (FIG. 7). For example, 6 h after E2-3,4-Q treatment, 7 mutations were identified among 29 H-ras inserts. Five of the seven were A/T to G/C mutations. At 12 h, four out of the six mutations found in 30 H-ras inserts were A/T to G/C mutations. […] The observation that E2-3,4-Q induces mutations at 6 h is, therefore, a basis to propose that these mutations are induced by error-prone repair. To confirm this, TDG-PCR analysis of these mutations was conducted (FIG. 7). […] At 12 h, the change was from 4 in 30 H-ras inserts to 0 in 41 plasmids. […] The TDG-treated 1 day spectrum was dominated by two clonal mutations of equal frequency (codon 16 AAG to AGG and intronic C to T mutations). Because it is unlikely that the intronic mutation would affect Ras activity and the two clonal mutations were found in the same frequency, these mutations may be allelic, belonging to a clonally proliferating population. […] (Chakravarti D., et al., Oncogene, 20, 7945-7953 (2001).)

[3] = system: Harvey (H)-ras oncogene; test: H-ras mutations in mouse skin papillomas initiated by PAH; format: in vivo; conditions: codon 61, skin papillomas
[4] = system: H-ras gene codon 61 (CAA to CTA); test: PCR-RFLP detection of H-ras codon 61 mutations in treated mouse skin; format: in vivo
Excerpt: In this technique, a segment of the H-ras gene is PCR-amplified and the product is restricted with XbaI to examine the induction of a RFLP from the codon 61 mutation. It was observed that at one day, 0.1% of the H-ras genes in the treated area of skin contained the codon 61 mutation, and then the population of these mutations increased to a maximum of 5% between 3 and 4 days after DB[a,l]P treatment. Subsequently, the level of mutations was reduced to background levels (0.0001%). The early time of induction of the codon 61 mutations (one day after DB[a,l]P treatment) coincides with suppression of DNA synthesis and induction of excision repair. Therefore, perhaps DB[a,l]P-induced DNA damage is converted into mutations by error-prone excision repair in pre-S-phase cells. (Chakravarti D., et al., Oncogene, 16, 3203-3210 (1998); Slaga T. J., et al., Cancer Res., 34a, 771-777 (1974); Sawyer T. W., et al., Carcinogenesis, 9, 1197-1202 (1988); Gill R. D., et al., Environ. Mol. Mutagen., 18, 200-206 (1991).)

[5] = system: mouse skin DNA; test: DNA adducts formed in mouse skin by PAH; format: in vivo
[6] = system: cloned H-ras gene (pWT); test: Mutations after PCR of pWT plasmid treated in vitro, with or without TDG; conditions: pWT DNA
Excerpt: FIGS. 4A-D depict H-ras mutations induced by DB[a,l]P or its metabolite, anti-DB[a/l]PDE. Wild type sequences and nucleotide numbers (GenBank accession No. U89950) are indicated below and mutations are indicated above the line. (A) PCR artifact mutations induced in untreated skin DNA and in a cloned H-ras gene (pWT) treated with anti-DB[a,l]PDE or with acid. Under the treatment conditions, anti-DB[a,l]PDE induces 1 adduct per 1000 bases and acid induces 1 depurination per 170 bases (Chakravarti, D. Et al., Mutat. Res., 456, 17-32 (2000)). (B) H-ras mutations in mouse skin DNA after treatment with 200 nmol DB[a,l]P in 100 μL acetone. At 12 h-1 d, the spectra contained mostly A/T to G/C mutations. At days 2 and 3, multiple codon 61 mutations were observed. At 4 d, no clear pattern of mutations could be determined. At days 5 and 6, multiple codon 52 (CTA to CCA) mutations were observed. […] (C) H-ras mutations in mouse skin DNA after treatment with 200 nmol of anti-DB[a,l]PDE in 100 μL acetone. Fifty to sixty percent of mutations between days 1 to 4 were A/T to G/C mutations. (D) H-ras mutations after TDG treatment of DNA from anti-DB[a,l]PDE-treated pWT and from DB[a,l]P- or anti-DB[a,l]PDE-treated mouse skin. […] These mutations were also observed at days 2 and 3. In addition, at days 2 and 3, multiple codon 13 (GGC to GTC) mutations were observed.
On the other hand, anti-DB[a,l]PDE formed approximately 50% A/T to G/C mutations, which correlated with 48.5% formation of anti-DB[a,l]PDE-Ade stable adducts in mouse skin DNA (Table 2). […] Studies conducted in other laboratories also indicate that nucleotide excision repair of bulky stable adducts is error-free. When the pWT plasmid was treated with anti-DB[a,l]PDE in vitro (97% bulky stable adducts) and subjected to PCR amplification, A/T to G/C mutations was also found to constitute 50% of all mutations (5 out of 10) (FIG. 4A). These mutations are induced by translesional synthesis over bulky stable adducts by the PCR polymerases. If, as has been proposed by others, only a small population of PAH-induced bulky stable adducts is removed by pre-replication repair, a large fraction of anti-DB[a,l]PDE-induced adducts would persist in the mouse skin DNA. It is, therefore, possible that the mutations found in anti-DB[a,l]PDE-treated mouse skin DNA are adduct-induced PCR artifacts. The similarity of the frequencies of A/T to G/C mutations in vitro and in skin is consistent with this idea.

C[C@]12CC[C@@H]3c4ccc(O)c(O)c4CC[C@H]3[C@@H]1CC[C@@H]2O [4-OHE2, 4-hydroxyestradiol]
level of stable adducts compared to the depurinating adducts [1]: ≤ 0.02%

c1ccc2c(c1)cc1ccc3cccc4c5ccccc5c2c1c34 [DB[a,l]P, dibenzo[a,l]pyrene]
A/T to G/C mutations, percent of total mutations ([2]; day 1, +TDG): 20%
A/T to G/C mutations/total mutations ([2]; day 1, +TDG): 2/10
A/T to G/C mutations, percent of total mutations ([2]; day 1, −TDG): 90%
A/T to G/C mutations/total mutations ([2]; day 1, −TDG): 10/11
A/T to G/C mutations, percent of total mutations ([2]; day 2, +TDG): 27%
A/T to G/C mutations/total mutations ([2]; day 2, +TDG): 6/22
A/T to G/C mutations, percent of total mutations ([2]; day 2, −TDG): 31%
A/T to G/C mutations/total mutations ([2]; day 2, −TDG): 11/35
A/T to G/C mutations, percent of total mutations ([2]; day 3, +TDG): 32%
A/T to G/C mutations/total mutations ([2]; day 3, +TDG): 8/25
A/T to G/C mutations, percent of total mutations ([2]; day 3, −TDG): 31%
A/T to G/C mutations/total mutations ([2]; day 3, −TDG): 7/22
H-ras Mutations, No. of mutations/No. of mice, CAA→CTA [3]: 10/12 CAA→CTA
H-ras genes in treated skin containing the codon 61 mutation ([4]; 200 nmol, at one day): 0.1%
H-ras genes containing the codon 61 mutation, maximum ([4]; 200 nmol, between 3 and 4 days after treatment): 5%
level of codon 61 mutations, subsequently reduced to background levels ([4]; after days 3-4): 0.0001%
depurinations through depurinating adducts versus spontaneous base loss ([5]; spontaneous: 10,000-20,000 depurinations/cell/day): approximately 120 fold

Cc1c2ccccc2c(C)c2c1ccc1ccccc12 [DMBA, 7,12-dimethylbenz[a]anthracene]
H-ras Mutations, No. of mutations/No. of mice, CAA→CTA [3]: 4/4 CAA→CTA

OC1c2cc3ccc4cccc5c6ccccc6c(c2C2OC2C1O)c3c45 (stereo not drawn) [anti-DB[a,l]PDE, anti-dibenzo[a,l]pyrene-11,12-dihydrodiol-13,14-epoxide]
A/T to G/C mutations formed, share of mutations ([2]; mouse skin): approximately 50%
A/T to G/C mutations, percent of total mutations ([2]; day 1, +TDG): 80%
A/T to G/C mutations/total mutations ([2]; day 1, +TDG): 4/5
A/T to G/C mutations, percent of total mutations ([2]; day 1, −TDG): 62.5%
A/T to G/C mutations/total mutations ([2]; day 1, −TDG): 5/8
depurinating adducts formed, share of adducts ([5]; DNA): 3%
stable adducts formed, share of adducts ([5]; DNA): 97%
Ade stable adducts formed ([5]; mouse skin DNA): 48.5%
A/T to G/C mutations, percent of total mutations ([6]; +TDG): 60%
A/T to G/C mutations/total mutations ([6]; +TDG): 3/5
A/T to G/C mutations, percent of total mutations ([6]; −TDG): 50%
A/T to G/C mutations/total mutations ([6]; −TDG): 5/10
